These results are taken from US20200087625A1, “METHODS FOR ISOLATING, EXPANDING AND ADMINISTERING CANCER SPECIFIC CD8+ T CELLS” (priority 2017, published 2020).

A short description of data set [1]: Serum cytokine analysis (Luminex) after systemic administration. In kind it is in vivo, BALB/c mice. To be noted: mouse, in vivo. How it is done:
FIG. 36. […] BALB/c mice (n=5) were i.p. administered IV270 (200 μg=185 nmol/injection) or […] (58 μg=185 nmol/injection) and sera were collected 2, 4, 6, and 24 hours following the administration. The levels of TNFα, IL-12, and IP-IO were measured by Luminex assay. *P<0.05, **P<0.01 by two way ANOVA using a Bonferroni post hoc test comparing treatment groups.
The sera were collected from mice receiving […] of 1V136, 1V270 or vehicle 2, 4, 6, and 24 hours after i.p. administration (15). Cytokine levels in sera were determined by Luminex bead assays (MILLIPLEX™ MAP kit, Millip ore, Billerica, Mass.).

The next data set concerns metastatic lung tumors. Particulars: intratracheal administration; cited from earlier work.
Another data set deals with dermatological tumors. Particulars: cited from earlier work.

As to `COCCOc1nc(N)c2[nH]c(=O)n(Cc3ccccc3)c2n1` [1V136, reference compound], the systemic proinflammatory cytokines result in data set [1] is reported as “high levels of systemic proinflammatory cytokines”. Turning to `CCCCNc1nc(N)c2[nH]c(=O)n(Cc3ccc(C)nc3)c2n1` [SM276001], the metastatic lung tumors entry with metastatic lung tumors is given as “suppress metastatic lung tumors”. On to `CC(C)Cn1cnc2c(N)nc3ccccc3c21` [imiquimod], for which, in the data set on dermatological tumors (patients with basal cell carcinoma and actinic keratosis, topical), the clinical efficacy entry is given as “favorable clinical efficacy”. In addition, the “toxicity on systemic administration” value with dermatological tumors (systemic administration) is “immunotoxicity induced by systemic administration”.
